Reference: patent US20180153842A1, “AMINO ACID SUPPLEMENTATION FOR A HEALTHY MICROBIOTA ECOSYSTEM” (NESTEC S.A., priority 2003, published 2018)

Legend:
Type in all cases: in vivo, Sprague-Dawley rats
Conditions in all cases: 5% DSS in drinking water for 9 days then 2% for 18 days, feces
[1] = test system: Enterobacteria; assay: fecal Enterobacteria count in rats
Description: (§1) The animal experiment was conducted as follows: Male Sprague-Dawley rats (n=32) aged 10 months were randomly distributed into 4 experimental groups (described below). During an 8 days acclimatization period, rats had free access to tap water and received a control diet or diets supplemented in amino acids as described below. After this adaptation period, Dextran Sulfate Sodium (DSS)-treated rats received 5% DSS (w/v) in their drinking water for the first 9 days of the experiment and 2% DSS for the following 18 days to induce a chronic colitis.
(§2) ii) Group “DSS”: rats were fed ad libitum with the control diet. They received DSS (free access) dissolved in their drinking water as previously described.
(§3) At the end of the experiment, fecal samples were collected from animals with a sterile spoon into sterile tubes, frozen (liquid nitrogen) in 10% glycerol and then stored at −80° C. until analysis. The fecal microbiota was analyzed quantitatively for Enterobacteria, Bacteroides, Enterococci, Lactobacilli and Bifidobacteria species according to standard methods. Bacteria were counted using selective or semi-selective media. The counts were expressed as log (base 10) cfu/g feces with a lower detection limit of 3.30 log cfu/g and 5.50 log cfu/g of feces for Bacteroides.
(§4) Data are expressed as mean±SEM. […]

[2] = test system: Bacteroides; assay: fecal Bacteroides count in rats
Description: as §1, §2, §3, §4

[3] = test system: Lactobacilli; assay: fecal Lactobacilli count in rats
Description: as §1, §2, §3, §4

[4] = test system: Enterococci; assay: fecal Enterococci count in rats
Description: as §1, §2, §3, §4

Dextran Sulfate Sodium [DSS]
Enterobacteria counts compared to controls [1]: significantly decreased | Bacteroides counts compared to controls [2]: increased | Lactobacilli counts compared to controls [3]: significantly decreased | Enterococci counts compared to controls [4]: significantly decreased
